# Results: EP4745135A1 (Gluetacs Therapeutics (Shanghai) Co., Ltd., priority 2023, dated 2025)
# How the values were obtained:
# [1] = tested on: GSPT1; assay: Western blot, degradation of substrate protein in hPBMCs; format: cell-based, Human
# [2] = tested on: Human multiple myeloma cell (MM.1S); assay: Tumor cell proliferation inhibition (CellTiter-Meiluncell luminescent cell viability assay); conditions: for inhibition at 0.01 µM / inhibition at 0.5 µM: Homo sapiens, MM1.S, 96 h; for inhibition at 0.01 µM: read-out: Inhibition Rate at 10 nM (%); for inhibition at 0.5 µM: read-out: Inhibition Rate at 500 nM (%); for Inhibition Rate at 500 nM (%): MM.1S, 96 hours
# [3] = tested on: Human myeloid monocytic leukemia cell (MV-4-11); assay: as above; conditions: MV4-11, 96 h; for inhibition at 0.01 µM: read-out: Inhibition Rate at 10 nM (%); for inhibition at 0.5 µM: read-out: Inhibition Rate at 500 nM (%)
# [4] = molecular target: T1, IKZF2 (Homo sapiens, UniProt Q96SW2+Q9UKS7); assay: Western blot, degradation of substrate protein in hPBMCs; format: cell-based
# T1 construct: effects of the compounds of the present disclosure on the expression of target proteins in cells; endogenous in cells; host or cells: human PBMCs (Milecell Biotechnologies)
# [5] = molecular target: T2, CK1α (Homo sapiens, UniProt P48729+Q96SW2); assay: as above; format: cell-based
# T2 construct: effects of the compounds of the present disclosure on the expression of target proteins in cells; endogenous in cells; host or cells: human PBMCs (Milecell Biotechnologies)
# [6] = molecular target: T3, IKZF3 (Homo sapiens, UniProt Q96SW2+Q9UKT9); assay: as above; format: cell-based
# T3 construct: effects of the compounds of the present disclosure on the expression of target proteins in cells; endogenous in cells; host or cells: human PBMCs (Milecell Biotechnologies)
# [7] = molecular target: T4, IKZF1 (Homo sapiens, UniProt Q13422+Q96SW2); assay: as above; format: cell-based
# T4 construct: effects of the compounds of the present disclosure on the expression of target proteins in cells; endogenous in cells; host or cells: human PBMCs (Milecell Biotechnologies)
# [8] = molecular target: T5, WEE1 (Homo sapiens, UniProt P30291+Q96SW2); assay: as above; format: cell-based
# T5 construct: effects of the compounds of the present disclosure on the expression of target proteins in cells; endogenous in cells; host or cells: human PBMCs (Milecell Biotechnologies)
# [9] = tested on: Human acute T lymphocytic leukemia cell (Molt4); assay: Tumor cell proliferation inhibition (CellTiter-Meiluncell luminescent cell viability assay); conditions: MOLT-4, 96 h; for inhibition at 0.01 µM: read-out: Inhibition Rate at 10 nM (%); for inhibition at 0.5 µM: read-out: Inhibition Rate at 500 nM (%)
# [10] = molecular target: T6, human Cereblon WT GST-tagged protein (Homo sapiens, UniProt Q96SW2); assay: CRBN-binding affinity, HTRF (CEREBLON BINDING kit); conditions: for inhibition at 0.5 µM: read-out: Inhibition Rate at 0.5 µM (%); for inhibition at 2 µM: read-out: Inhibition Rate at 2 µM (%)
# T6 construct: purchased CISBIO 64BDCRBNPEH
# [11] = Western blot, 24 hours of compound treatment, compounds tested at 50 nM and 500 nM (concentration for the table not stated)
# [12] = 24 hours treatment, compounds at 50 nM and 500 nM (concentration behind the class not stated)
# T4 sequence (Q13422 whole entry): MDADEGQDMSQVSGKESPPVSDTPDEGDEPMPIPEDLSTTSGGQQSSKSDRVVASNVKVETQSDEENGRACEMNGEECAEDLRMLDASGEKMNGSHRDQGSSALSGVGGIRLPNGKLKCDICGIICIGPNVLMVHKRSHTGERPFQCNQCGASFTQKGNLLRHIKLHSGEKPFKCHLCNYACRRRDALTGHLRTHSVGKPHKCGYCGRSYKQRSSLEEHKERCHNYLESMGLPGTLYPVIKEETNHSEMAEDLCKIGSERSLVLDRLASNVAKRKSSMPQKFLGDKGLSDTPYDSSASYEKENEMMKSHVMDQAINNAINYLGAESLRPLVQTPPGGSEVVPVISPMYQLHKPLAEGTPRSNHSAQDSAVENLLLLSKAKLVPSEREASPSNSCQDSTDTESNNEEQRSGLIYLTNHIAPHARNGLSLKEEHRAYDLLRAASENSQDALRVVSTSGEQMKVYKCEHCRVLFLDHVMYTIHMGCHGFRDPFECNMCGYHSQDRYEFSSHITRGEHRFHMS
# T4 sequence (Q96SW2 whole entry): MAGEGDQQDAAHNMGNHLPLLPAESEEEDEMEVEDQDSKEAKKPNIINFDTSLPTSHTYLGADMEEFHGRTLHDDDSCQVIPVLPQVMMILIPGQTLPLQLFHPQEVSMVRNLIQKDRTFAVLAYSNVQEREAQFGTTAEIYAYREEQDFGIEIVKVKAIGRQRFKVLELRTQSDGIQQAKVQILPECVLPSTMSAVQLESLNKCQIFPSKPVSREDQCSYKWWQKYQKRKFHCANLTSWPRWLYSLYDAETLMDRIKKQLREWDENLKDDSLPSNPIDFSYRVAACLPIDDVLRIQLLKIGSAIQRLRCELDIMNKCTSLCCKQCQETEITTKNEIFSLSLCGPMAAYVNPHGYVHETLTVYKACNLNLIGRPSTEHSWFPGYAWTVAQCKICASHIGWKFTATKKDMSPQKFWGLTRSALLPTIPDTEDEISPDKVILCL
# T4 sequence (Q16531 whole entry partner): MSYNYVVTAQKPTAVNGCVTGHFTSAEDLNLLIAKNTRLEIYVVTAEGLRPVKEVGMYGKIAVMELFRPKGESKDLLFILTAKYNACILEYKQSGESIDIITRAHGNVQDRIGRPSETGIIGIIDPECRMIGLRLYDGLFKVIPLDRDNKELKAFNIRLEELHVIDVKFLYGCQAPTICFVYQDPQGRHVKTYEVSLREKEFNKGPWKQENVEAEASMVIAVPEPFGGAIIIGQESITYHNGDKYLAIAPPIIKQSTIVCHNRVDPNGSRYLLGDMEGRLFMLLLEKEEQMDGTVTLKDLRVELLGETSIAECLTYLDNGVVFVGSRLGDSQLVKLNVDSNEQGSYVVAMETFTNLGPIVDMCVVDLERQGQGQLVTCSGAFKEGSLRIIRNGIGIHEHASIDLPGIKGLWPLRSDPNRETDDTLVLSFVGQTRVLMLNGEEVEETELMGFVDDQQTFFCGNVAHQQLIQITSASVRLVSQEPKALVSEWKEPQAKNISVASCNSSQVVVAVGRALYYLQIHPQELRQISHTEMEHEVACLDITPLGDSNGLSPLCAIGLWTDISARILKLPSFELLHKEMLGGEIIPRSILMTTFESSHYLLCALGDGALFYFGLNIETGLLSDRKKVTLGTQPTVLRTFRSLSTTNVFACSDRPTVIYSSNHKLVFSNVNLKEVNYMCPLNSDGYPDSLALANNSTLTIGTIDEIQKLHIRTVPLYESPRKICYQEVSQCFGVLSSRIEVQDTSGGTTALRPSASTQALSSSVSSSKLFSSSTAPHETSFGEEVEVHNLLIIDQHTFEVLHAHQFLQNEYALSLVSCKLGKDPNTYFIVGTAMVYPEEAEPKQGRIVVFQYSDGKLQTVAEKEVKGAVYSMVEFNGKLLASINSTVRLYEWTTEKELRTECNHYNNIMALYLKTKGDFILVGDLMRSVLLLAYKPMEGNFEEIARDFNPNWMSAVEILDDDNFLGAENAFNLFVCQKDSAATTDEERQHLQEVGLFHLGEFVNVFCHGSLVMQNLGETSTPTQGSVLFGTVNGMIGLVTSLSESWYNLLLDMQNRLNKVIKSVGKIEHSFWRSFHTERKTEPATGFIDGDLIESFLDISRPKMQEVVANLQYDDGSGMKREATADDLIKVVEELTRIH
# T6 sequence (Q96SW2 whole entry): as the sequence (Q96SW2 whole entry) above
# T2 sequence (P48729 whole entry): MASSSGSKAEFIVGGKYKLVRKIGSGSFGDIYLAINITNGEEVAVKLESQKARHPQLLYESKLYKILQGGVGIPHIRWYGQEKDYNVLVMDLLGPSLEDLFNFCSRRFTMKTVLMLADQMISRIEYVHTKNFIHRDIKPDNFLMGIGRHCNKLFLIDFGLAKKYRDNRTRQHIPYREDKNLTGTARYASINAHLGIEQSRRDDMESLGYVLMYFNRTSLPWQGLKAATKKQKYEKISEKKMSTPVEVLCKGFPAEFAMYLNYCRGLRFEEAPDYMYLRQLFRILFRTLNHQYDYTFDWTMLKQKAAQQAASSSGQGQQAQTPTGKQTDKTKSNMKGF
# T2 sequence (Q96SW2 whole entry): as the sequence (Q96SW2 whole entry) above
# T2 sequence (Q16531 whole entry partner): as the sequence (Q16531 whole entry partner) above
# T5 sequence (P30291 whole entry): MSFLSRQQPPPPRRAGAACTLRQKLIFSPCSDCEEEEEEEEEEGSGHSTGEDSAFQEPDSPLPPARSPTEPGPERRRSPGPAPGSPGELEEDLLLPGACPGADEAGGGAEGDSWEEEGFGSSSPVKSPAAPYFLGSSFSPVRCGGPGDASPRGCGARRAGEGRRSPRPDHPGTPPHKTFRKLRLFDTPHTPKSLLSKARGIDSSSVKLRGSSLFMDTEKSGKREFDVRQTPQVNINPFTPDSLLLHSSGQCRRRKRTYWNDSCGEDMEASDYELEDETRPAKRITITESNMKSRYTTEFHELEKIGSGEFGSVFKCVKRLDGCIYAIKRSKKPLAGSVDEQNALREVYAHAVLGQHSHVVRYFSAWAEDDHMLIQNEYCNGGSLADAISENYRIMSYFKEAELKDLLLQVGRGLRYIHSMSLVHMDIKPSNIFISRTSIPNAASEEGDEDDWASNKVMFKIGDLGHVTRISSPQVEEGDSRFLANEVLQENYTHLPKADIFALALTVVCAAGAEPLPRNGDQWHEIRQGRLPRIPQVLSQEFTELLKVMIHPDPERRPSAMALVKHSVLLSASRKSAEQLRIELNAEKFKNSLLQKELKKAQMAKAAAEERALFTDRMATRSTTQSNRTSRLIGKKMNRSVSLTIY
# T5 sequence (Q96SW2 whole entry): as the sequence (Q96SW2 whole entry) above
# T5 sequence (Q16531 whole entry partner): as the sequence (Q16531 whole entry partner) above
# T1 sequence (Q9UKS7 whole entry): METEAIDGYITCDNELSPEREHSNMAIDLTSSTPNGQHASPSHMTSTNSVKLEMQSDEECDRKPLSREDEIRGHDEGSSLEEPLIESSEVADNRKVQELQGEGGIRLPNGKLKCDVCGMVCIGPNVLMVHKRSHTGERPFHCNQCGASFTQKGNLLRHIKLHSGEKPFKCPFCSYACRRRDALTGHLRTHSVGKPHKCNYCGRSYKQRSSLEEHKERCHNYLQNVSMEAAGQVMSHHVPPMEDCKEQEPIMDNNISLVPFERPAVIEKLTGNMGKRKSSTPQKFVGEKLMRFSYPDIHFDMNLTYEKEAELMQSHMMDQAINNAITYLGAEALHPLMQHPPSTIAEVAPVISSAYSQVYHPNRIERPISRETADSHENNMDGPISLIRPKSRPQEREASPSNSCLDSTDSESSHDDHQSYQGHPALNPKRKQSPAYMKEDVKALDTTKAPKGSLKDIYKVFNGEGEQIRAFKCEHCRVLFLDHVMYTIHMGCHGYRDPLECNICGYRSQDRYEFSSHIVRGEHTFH
# T1 sequence (Q96SW2 whole entry): as the sequence (Q96SW2 whole entry) above
# T1 sequence (Q16531 whole entry partner): as the sequence (Q16531 whole entry partner) above
# T3 sequence (Q9UKT9 whole entry): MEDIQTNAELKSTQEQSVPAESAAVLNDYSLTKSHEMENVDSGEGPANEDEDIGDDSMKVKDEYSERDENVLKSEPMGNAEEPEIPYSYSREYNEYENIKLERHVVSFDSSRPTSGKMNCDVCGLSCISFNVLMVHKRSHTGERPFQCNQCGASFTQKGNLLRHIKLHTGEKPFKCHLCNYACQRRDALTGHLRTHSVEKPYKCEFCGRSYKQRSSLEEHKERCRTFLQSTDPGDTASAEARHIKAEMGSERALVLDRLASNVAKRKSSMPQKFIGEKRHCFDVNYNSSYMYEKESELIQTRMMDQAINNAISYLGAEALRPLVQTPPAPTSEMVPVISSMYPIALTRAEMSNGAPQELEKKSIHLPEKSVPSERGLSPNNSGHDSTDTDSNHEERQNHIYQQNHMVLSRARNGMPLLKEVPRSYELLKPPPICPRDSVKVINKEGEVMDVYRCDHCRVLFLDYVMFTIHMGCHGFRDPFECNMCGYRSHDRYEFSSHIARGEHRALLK
# T3 sequence (Q96SW2 whole entry): as the sequence (Q96SW2 whole entry) above
# T3 sequence (Q16531 whole entry partner): as the sequence (Q16531 whole entry partner) above
inhibition at 0.5 µM [10],inhibition at 2 µM [10],SMILES,"GSPT1 substrate protein remaining % [1, 11]",inhibition at 0.01 µM [2],inhibition at 0.5 µM [2],inhibition at 0.01 µM [3],inhibition at 0.5 µM [3],"IKZF2 substrate protein remaining % [4, 11]","CK1α substrate protein remaining % [5, 11]","IKZF3 substrate protein remaining % [6, 11]","IKZF 1 substrate protein remaining % [7, 11]","Wee1 substrate protein remaining % [8, 11]",inhibition at 0.01 µM [9],inhibition at 0.5 µM [9],"GSPT1 substrate protein remaining % [1, 12]","IKZF2 substrate protein remaining % [4, 12]","CK1α substrate protein remaining % [5, 12]","IKZF3 substrate protein remaining % [6, 12]","IKZF 1 substrate protein remaining % [7, 12]","Wee1 substrate protein remaining % [8, 12]",further results
60 to 80%,80 to 100%,"O=C1CCC(N2Cc3cc(CN4CCC(c5nccc(Cl)c5Cl)CC4)ccc3C2=S)C(=O)N1 (stereo not drawn) [GT-08488, 3-(5-((4-(3,4-dichloropyridin-2-yl)piperidin-1-yl)methyl)-1-thioxoisoindolin-2-yl)piperidine-2,6-dione]",A (0% ≤ substrate protein remaining % ≤ 80%),10 to 20%,–,18 to 25%,80 to 100%,B (80%< substrate protein remaining %≤ 100%),B (80%< substrate protein remaining %≤ 100%),B (80%< substrate protein remaining %≤ 100%),B (80%< substrate protein remaining %≤ 100%),B (80%< substrate protein remaining %≤ 100%),10 to 20%,70 to 80%,–,–,–,–,–,–,Inhibition Rate at 500 nM (%) [2]: la8
53 to 60%,80 to 100%,"Cc1ccc(N2CCN(Cc3ccc4c(c3)CN(C3CCC(=O)NC3=O)C4=S)CC2)cc1 (stereo not drawn) [GT-08603, 3-(1-thioxo-5-((4-(p-tolyl)piperazin-1-yl)methyl)isoindolin-2-yl)piperidine-2,6-dione]",A (0% ≤ substrate protein remaining % ≤ 80%),30 to 40%,50 to 60%,40 to 60%,80 to 100%,B (80%< substrate protein remaining %≤ 100%),B (80%< substrate protein remaining %≤ 100%),B (80%< substrate protein remaining %≤ 100%),B (80%< substrate protein remaining %≤ 100%),B (80%< substrate protein remaining %≤ 100%),0 to 5%,40 to 50%,–,–,–,–,–,–,–
30 to 40%,60 to 80%,"O=C1CCC(N2Cc3cc(CN4CCN(c5cc(Cl)ccc5Cl)CC4)ccc3C2=S)C(=O)N1 (stereo not drawn) [GT-08611, 3-(5-((4-(2,5-dichlorophenyl)piperazin-1-yl)methyl)-1-thioxoisoindolin-2-yl)piperidine-2,6-dione]",A (0% ≤ substrate protein remaining % ≤ 80%),20 to 30%,50 to 60%,18 to 25%,80 to 100%,B (80%< substrate protein remaining %≤ 100%),B (80%< substrate protein remaining %≤ 100%),B (80%< substrate protein remaining %≤ 100%),B (80%< substrate protein remaining %≤ 100%),B (80%< substrate protein remaining %≤ 100%),0 to 5%,70 to 80%,–,–,–,–,–,–,–
53 to 60%,80 to 100%,"O=C1CCC(N2Cc3cc(CN4CCC(c5ccccc5)CC4)ccc3C2=S)C(=O)N1 (stereo not drawn) [GT-08616, 3-(5-((4-phenylpiperidin-1-yl)methyl)-1-thioxoisoindolin-2-yl)piperidine-2,6-dione]",A (0% ≤ substrate protein remaining % ≤ 80%),20 to 30%,50 to 60%,-5 to 0%,60 to 80%,B (80%< substrate protein remaining %≤ 100%),B (80%< substrate protein remaining %≤ 100%),B (80%< substrate protein remaining %≤ 100%),B (80%< substrate protein remaining %≤ 100%),B (80%< substrate protein remaining %≤ 100%),10 to 20%,40 to 50%,–,–,–,–,–,–,–
40 to 53%,80 to 100%,"O=C1CCC(N2Cc3cc(CN4CCC(c5ccccc5C(F)(F)F)CC4)ccc3C2=S)C(=O)N1 (stereo not drawn) [GT-08622, 3-(1-thioxo-5-((4-(2-(trifluoromethyl)phenyl)piperidin-1-yl)methyl)isoindolin-2-yl)piperidine-2,6-dione]",A (0% ≤ substrate protein remaining % ≤ 80%),10 to 20%,70 to 80%,10 to 18%,80 to 100%,A (0% ≤ substrate protein remaining % ≤ 80%),B (80%< substrate protein remaining %≤ 100%),B (80%< substrate protein remaining %≤ 100%),B (80%< substrate protein remaining %≤ 100%),B (80%< substrate protein remaining %≤ 100%),-5 to 0%,80 to 100%,–,–,–,–,–,–,–
60 to 80%,80 to 100%,"O=C1CCC(N2Cc3cc(CN4CCN(c5nccc(Cl)c5Br)CC4)ccc3C2=S)C(=O)N1 (stereo not drawn) [GT-09245, 3-(5-((4-(3-bromo-4-chloropyridin-2-yl)piperazin-1-yl)methyl)-1-thioxoisoindolin-2-yl)piperidine-2,6-dione]",–,40 to 50%,70 to 80%,60 to 80%,80 to 100%,–,–,–,–,–,10 to 20%,50 to 60%,A (0% ≤ substrate protein remaining % ≤ 80%),A (0% ≤ substrate protein remaining % ≤ 80%),B (80%< substrate protein remaining %≤ 100%),B (80%< substrate protein remaining %≤ 100%),A (0% ≤ substrate protein remaining % ≤ 80%),B (80%< substrate protein remaining %≤ 100%),–
53 to 60%,80 to 100%,"O=C1CCC(N2Cc3cc(CN4CCC(c5c[nH]c6ncccc56)CC4)ccc3C2=S)C(=O)N1 (stereo not drawn) [GT-09268, 3-(5-((4-(1H-pyrrolo[2,3-b]pyridin-3-yl)piperidin-1-yl)methyl)-1-thioxoisoindolin-2-yl)piperidine-2,6-dione]",–,30 to 40%,–,5 to 10%,60 to 80%,–,–,–,–,–,40 to 50%,40 to 50%,A (0% ≤ substrate protein remaining % ≤ 80%),B (80%< substrate protein remaining %≤ 100%),B (80%< substrate protein remaining %≤ 100%),B (80%< substrate protein remaining %≤ 100%),B (80%< substrate protein remaining %≤ 100%),B (80%< substrate protein remaining %≤ 100%),Inhibition Rate at 500 nM (%) [2]: la7

SMILES,inhibition at 0.5 µM [10],inhibition at 2 µM [10],"GSPT1 substrate protein remaining % [1, 11]",inhibition at 0.01 µM [2],inhibition at 0.5 µM [2],inhibition at 0.01 µM [3],inhibition at 0.5 µM [3],"IKZF2 substrate protein remaining % [4, 11]","CK1α substrate protein remaining % [5, 11]","IKZF3 substrate protein remaining % [6, 11]","IKZF 1 substrate protein remaining % [7, 11]","Wee1 substrate protein remaining % [8, 11]",inhibition at 0.01 µM [9],inhibition at 0.5 µM [9],"GSPT1 substrate protein remaining % [1, 12]","IKZF2 substrate protein remaining % [4, 12]","CK1α substrate protein remaining % [5, 12]","IKZF3 substrate protein remaining % [6, 12]","IKZF 1 substrate protein remaining % [7, 12]","Wee1 substrate protein remaining % [8, 12]",further results
"O=C1CCC(N2Cc3cc(CN4C5CCC4CN(c4cccc(Cl)c4Cl)C5)ccc3C2=S)C(=O)N1 (stereo not drawn) [GT-08480, 3-(5-((3-(2,3-dichlorophenyl)-3,8-diazabicyclo[3.2.1]octan-8-yl)methyl)-1-thioxoisoindolin-2-yl)piperidine-2,6-dione]",40 to 53%,80 to 100%,A (0% ≤ substrate protein remaining % ≤ 80%),20 to 30%,80 to 100%,25 to 30%,80 to 100%,B (80%< substrate protein remaining %≤ 100%),B (80%< substrate protein remaining %≤ 100%),B (80%< substrate protein remaining %≤ 100%),B (80%< substrate protein remaining %≤ 100%),B (80%< substrate protein remaining %≤ 100%),0 to 5%,80 to 100%,–,–,–,–,–,–,–
"O=C1CCC(N2Cc3cc(CN4CCC(c5n[nH]c6cc(F)ccc56)CC4)ccc3C2=S)C(=O)N1 (stereo not drawn) [GT-09269, 3-(5-((4-(6-fluoro-1H-indazol-3-yl)piperidin-1-yl)methyl)-1-thioxoisoindolin-2-yl)piperidine-2,6-dione]",80 to 100%,80 to 100%,–,5 to 10%,80 to 100%,10 to 18%,80 to 100%,–,–,–,–,–,30 to 40%,80 to 100%,A (0% ≤ substrate protein remaining % ≤ 80%),B (80%< substrate protein remaining %≤ 100%),B (80%< substrate protein remaining %≤ 100%),B (80%< substrate protein remaining %≤ 100%),B (80%< substrate protein remaining %≤ 100%),B (80%< substrate protein remaining %≤ 100%),–
